Assay: Solubility of MGBG salts
Assay type: physicochemical
Text: It is necessary to administer MGBG in a salt form to assure solubility of drug in the administration of fluid such as 5% (w/v) dextrose in water. […] Available MGBG-salt complexes include but are not limited to the dihydrochloride (NSC-32946) and the diacetate (NSC-30689).

Structure (SMILES): CC(C=NNC(=N)N)=NNC(=N)N
- solubility relative to dihydrochloride or diacetate salts: not as soluble as the dihydrochloride or diacetate salts

Source: patent US4520031A, “Method for reducing toxic effects of methyl-glyoxal bis-guanylhydrazone” (priority 1982, dated 1985)
